Laboratory results: BigSolDB 2.1

CC(C)(C#N)N=NC(C)(C)C#N
Conditions | solubility (mole fraction)
in acetone, 278.15 K | 0.0518
in acetone, 283.45 K | 0.062
in acetone, 288.75 K | 0.0741
in acetone, 293.05 K | 0.0881
in acetone, 297.85 K | 0.106
in acetone, 302.95 K | 0.127
in acetone, 307.95 K | 0.145
in acetone, 312.75 K | 0.176
in acetone, 318.05 K | 0.209
in acetone, 322.75 K | 0.236
in benzene, 279.25 K | 0.0254
in benzene, 283.75 K | 0.0311
in benzene, 290.05 K | 0.0411
in benzene, 293.65 K | 0.049
in benzene, 298.05 K | 0.0603
in benzene, 303.25 K | 0.077
in benzene, 307.95 K | 0.0938
in benzene, 312.65 K | 0.119
in benzene, 317.65 K | 0.151
in benzene, 322.25 K | 0.181
in ethanol, 278.55 K | 0.00263
in ethanol, 284.35 K | 0.00408
in ethanol, 288.95 K | 0.00511
in ethanol, 293.15 K | 0.00667
in ethanol, 297.85 K | 0.00938
in ethanol, 302.95 K | 0.0128
in ethanol, 307.65 K | 0.0165
in ethanol, 312.55 K | 0.0221
in ethanol, 317.65 K | 0.0314
in ethanol, 322.55 K | 0.0427
in ethyl acetate, 278.15 K | 0.0349
in ethyl acetate, 282.85 K | 0.0424
in ethyl acetate, 287.75 K | 0.053
in ethyl acetate, 293.65 K | 0.0669
in ethyl acetate, 298.35 K | 0.0821
in ethyl acetate, 303.15 K | 0.0959
in ethyl acetate, 307.85 K | 0.119
in ethyl acetate, 312.95 K | 0.144
in ethyl acetate, 317.95 K | 0.175
in ethyl acetate, 322.95 K | 0.206
in methanol, 268.15 K | 0.0034
in methanol, 273.15 K | 0.00441
in methanol, 278.15 K | 0.00567
in methanol, 283.15 K | 0.00738
in methanol, 288.15 K | 0.00942
in methanol, 293.15 K | 0.0124
in methanol, 298.15 K | 0.0162
in methanol, 303.15 K | 0.0212
in methanol, 308.15 K | 0.0277
in methanol, 313.15 K | 0.0364
in methanol, 318.15 K | 0.0479
in methanol, 323.15 K | 0.0637
